Toxic doses and inconclusive results are not listed. No stated cut-off is given here; in the data, active means T/C of 150% or more; inactive means T/C below 125%.
Tested on: L1210 leukemia ip in BDF1 mice, survival T/C
Test: NCI In Vivo Anticancer Drug Screen. Data for tumor model L1210 Leukemia (intraperitoneal) in B6D2F1 (BDF1) mice
Conditions: endpoint: mean survival time, higher = longer survival
In short: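 Ratio derived from survival: compound-dosed mice over vehicle-dosed mice, all bearing a transplantable tumor.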

[1] = dose: 50.0 mg/kg/injection, schedule: Q01DX001 (ip), vehicle: saline
[2] = dose: 100.0 mg/kg/injection, schedule: Q04DX003 (ip), vehicle: saline
[3] = dose: 200.0 mg/kg/injection, schedule: Q04DX003 (ip), vehicle: saline
[4] = dose: 400.0 mg/kg/injection, schedule: Q04DX003 (ip), vehicle: saline
[5] = dose: 100.0 mg/kg/injection, schedule: Q01DX009 (ip), vehicle: saline with Tween-80
[6] = dose: 200.0 mg/kg/injection, schedule: Q01DX009 (ip), vehicle: saline with Tween-80
[7] = dose: 400.0 mg/kg/injection, schedule: Q01DX009 (ip), vehicle: saline with Tween-80
[8] = dose: 100.0 mg/kg/injection, schedule: Q04DX003 (ip), vehicle: Klucel (hydroxypropylcellulose) (HPC)
[9] = dose: 200.0 mg/kg/injection, schedule: Q04DX003 (ip), vehicle: Klucel (hydroxypropylcellulose) (HPC)
[10] = dose: 400.0 mg/kg/injection, schedule: Q04DX003 (ip), vehicle: Klucel (hydroxypropylcellulose) (HPC)
[11] = dose: 100.0 mg/kg/injection, schedule: Q01DX001 (ip), vehicle: saline
[12] = dose: 200.0 mg/kg/injection, schedule: Q01DX001 (ip), vehicle: saline
[13] = dose: 400.0 mg/kg/injection, schedule: Q01DX001 (ip), vehicle: saline
[14] = dose: 100.0 mg/kg/injection, schedule: Q01DX009 (ip), vehicle: Klucel (hydroxypropylcellulose) (HPC)
[15] = dose: 400.0 mg/kg/injection, schedule: Q01DX009 (ip), vehicle: Klucel (hydroxypropylcellulose) (HPC)
[16] = dose: 200.0 mg/kg/injection, schedule: Q01DX009 (ip), vehicle: Klucel (hydroxypropylcellulose) (HPC)
[17] = dose: 100.0 mg/kg/injection, schedule: Q04DX003 (ip), vehicle: saline with Tween-80
[18] = dose: 200.0 mg/kg/injection, schedule: Q04DX003 (ip), vehicle: saline with Tween-80
[19] = dose: 400.0 mg/kg/injection, schedule: Q04DX003 (ip), vehicle: saline with Tween-80
[20] = dose: 50.0 mg/kg/injection, schedule: Q01DX009 (ip), vehicle: Klucel (hydroxypropylcellulose) (HPC)

Measured: T/C

C=COC(N)=O
inactive: dose: 33.0 mg/kg/injection, schedule: Q01DX001 (ip), vehicle: saline 116 % of control | [1] 117 % of control | dose: 75.0 mg/kg/injection, schedule: Q01DX001 (ip), vehicle: saline 121 % of control | dose: 113.0 mg/kg/injection, schedule: Q01DX001 (ip), vehicle: saline 111 % of control

Cc1nc2c(-c3ccccc3)cc(Cl)cc2s1
inactive: [2] 100 % of control | [3] 101 % of control | [4] 95 % of control

COc1cc(/C=C(/C#N)C(=O)N2CCOCC2)cc(OC)c1OC
inactive: [5] 87 % of control | dose: 100.0 mg/kg/injection, schedule: Q04DX002 (ip), vehicle: saline with Tween-80 90 % of control | [6] 93 % of control | dose: 200.0 mg/kg/injection, schedule: Q04DX002 (ip), vehicle: saline with Tween-80 104 % of control | [7] 93 % of control | dose: 400.0 mg/kg/injection, schedule: Q04DX002 (ip), vehicle: saline with Tween-80 101 % of control

CCOC(=O)NS(=O)(=O)[N+](CC)(CC)CC
inactive: dose: 100.0 mg/kg/injection, schedule: Q01DX001 (ip), vehicle: carboxymethylcellulose (CMC) 97 % of control | dose: 200.0 mg/kg/injection, schedule: Q01DX001 (ip), vehicle: carboxymethylcellulose (CMC) 97 % of control | dose: 400.0 mg/kg/injection, schedule: Q01DX001 (ip), vehicle: carboxymethylcellulose (CMC) 100 % of control

CCNc1ccc(F)cc1[N+](=O)[O-]
inactive: dose: 100.0 mg/kg/injection, schedule: Q01DX009 (ip), vehicle: saline sonified 110 % of control | [8] 103 % of control | dose: 200.0 mg/kg/injection, schedule: Q01DX009 (ip), vehicle: saline sonified 102 % of control | [9] 104 % of control | dose: 400.0 mg/kg/injection, schedule: Q01DX009 (ip), vehicle: saline sonified 102 % of control | [10] 97 % of control

O=c1[nH]c(-c2ccccc2)nc(-c2ccccc2)c1CCO
inactive: [5] 92 % of control | [6] 86 % of control | [7] 91 % of control

COc1cc2c(O)cc(C(=O)OC(C)(C)C)c(-c3cc(OC)c(OC)c(OC)c3)c2cc1OC
inactive: [11] 97 % of control | [12] 95 % of control | [13] 89 % of control

CCOC(=O)NC#N (tested in a mixture with another compound)
inactive: dose: 10.0 mg/kg/injection, schedule: Q01DX001 (ip), vehicle: saline 98 % of control | dose: 20.0 mg/kg/injection, schedule: Q01DX001 (ip), vehicle: saline 102 % of control | dose: 40.0 mg/kg/injection, schedule: Q01DX001 (ip), vehicle: saline 102 % of control

CC(C)(C)OC(=O)c1c2ccccc2cc2ccccc12
inactive: dose: 100.0 mg/kg/injection, schedule: Q04DX002 (ip), vehicle: gum acacia 99 % of control | dose: 200.0 mg/kg/injection, schedule: Q04DX002 (ip), vehicle: gum acacia 101 % of control | dose: 400.0 mg/kg/injection, schedule: Q04DX002 (ip), vehicle: gum acacia 105 % of control

C#CCCCCCCCCC(=O)NCC
inactive: [14] 100 % of control | [8] 95 % of control | [9] 93 % of control | [15] 104 % of control | [10] 108 % of control

O=S(O)O
inactive: [11] 95 % of control | dose: 100.0 mg/kg/injection, schedule: Q01DX009 (ip), vehicle: saline 103 % of control | [12] 97 % of control | dose: 200.0 mg/kg/injection, schedule: Q01DX009 (ip), vehicle: saline 97 % of control | [13] 103 % of control | dose: 400.0 mg/kg/injection, schedule: Q01DX009 (ip), vehicle: saline 100 % of control

Cc1ccc(C)c(C[P+](c2ccccc2)(c2ccccc2)c2ccccc2)c1
inactive: dose: 15.0 mg/kg/injection, schedule: Q01DX001 (ip), vehicle: saline 104 % of control

CCOc1cccc(NNc2ccccc2OCC)c1
inactive: dose: 44.0 mg/kg/injection, schedule: Q01DX001 (ip), vehicle: other 106 % of control | dose: 66.0 mg/kg/injection, schedule: Q01DX001 (ip), vehicle: other 95 % of control | dose: 150.0 mg/kg/injection, schedule: Q01DX001 (ip), vehicle: other 92 % of control | dose: 200.0 mg/kg/injection, schedule: Q01DX001 (ip), vehicle: other 97 % of control | dose: 400.0 mg/kg/injection, schedule: Q01DX001 (ip), vehicle: other 97 % of control

OCCNc1nc2cc(Cl)ccc2c2ccc(Cl)cc12
inactive: [14] 91 % of control | [8] 96 % of control | [16] 99 % of control | [9] 93 % of control | [10] 96 % of control

COc1ccc(N(CCO)CCO)cc1
inactive: [1] 96 % of control | [11] 102 % of control | [12] 96 % of control

Nc1cc(SC(c2ccccc2)c2ccccc2)c(N)c(N)n1
inactive: dose: 75.0 mg/kg/injection, schedule: Q01DX001 (ip), vehicle: DMSO 96 % of control | dose: 150.0 mg/kg/injection, schedule: Q01DX001 (ip), vehicle: DMSO 88 % of control

CC(=O)OI(OC(C)=O)c1ccccc1
inactive: [14] 98 % of control | [16] 102 % of control

O=C(COc1ccc(Cl)cc1Cl)NCCO
inactive: [8] 98 % of control | [9] 97 % of control | [10] 111 % of control

COC1OC(COS(C)(=O)=O)C(O)C(O)C1OS(C)(=O)=O (stereo not drawn)
inactive: [14] 109 % of control | [8] 106 % of control | [16] 95 % of control | [9] 102 % of control | [15] 111 % of control | [10] 102 % of control

Cc1ccc(S(=O)(=O)N2CCC(=O)c3ccc(Cl)cc32)cc1
inactive: [8] 93 % of control | [9] 94 % of control | [10] 96 % of control

O=C(O)C1CCCCC1C(=O)Nc1ccc(F)cc1 (stereo not drawn)
inactive: [5] 103 % of control | [17] 102 % of control | [6] 90 % of control | [18] 102 % of control | [7] 105 % of control | [19] 96 % of control

O=C(O)C1CC2(CCC1c1ccccc1)SCCS2 (stereo not drawn)
inactive: [20] 95 % of control | dose: 100.0 mg/kg/injection, schedule: Q01DX001 (ip), vehicle: Klucel (hydroxypropylcellulose) (HPC) 97 % of control | [14] 93 % of control | dose: 200.0 mg/kg/injection, schedule: Q01DX001 (ip), vehicle: Klucel (hydroxypropylcellulose) (HPC) 100 % of control | [16] 96 % of control | dose: 400.0 mg/kg/injection, schedule: Q01DX001 (ip), vehicle: Klucel (hydroxypropylcellulose) (HPC) 96 % of control

C#CCCCCC#CCCCCNC(=O)NCCCCC#CCCCCC#C
inactive: [2] 93 % of control | [3] 90 % of control | [4] 87 % of control

CCOC(=O)c1c(-c2ccccc2)csc1NC(=O)c1ccccc1
inactive: dose: 50.0 mg/kg/injection, schedule: Q04DX003 (ip), vehicle: saline with Tween-80 92 % of control | [17] 90 % of control | [18] 89 % of control | [19] 90 % of control

O=c1nc2n(O)cccc-2c(=O)[nH]1
inactive: [20] 96 % of control | [14] 100 % of control | [8] 96 % of control | [16] 101 % of control | [9] 102 % of control

COP(=NC(C)=O)(OC)OC
inactive: [5] 101 % of control | [17] 97 % of control | [6] 101 % of control | [18] 104 % of control | [7] 102 % of control | [19] 106 % of control

OC(c1ccccc1)c1ccccn1 (stereo not drawn)
inactive: [2] 92 % of control | [3] 115 % of control | [4] 101 % of control

C#CC1CC2C3CCC4=CC(=O)CCC4(C)C3CCC2(C)C1N(C)C (stereo not drawn)
inactive: dose: 50.0 mg/kg/injection, schedule: Q01DX001 (sc), vehicle: steriod suspending solution 98 % of control | dose: 100.0 mg/kg/injection, schedule: Q01DX001 (sc), vehicle: steriod suspending solution 104 % of control

CC#CC#Cc1cccc(=O)o1
inactive: dose: 25.0 mg/kg/injection, schedule: Q04DX003 (ip), vehicle: other 90 % of control | dose: 50.0 mg/kg/injection, schedule: Q04DX003 (ip), vehicle: other 90 % of control | dose: 100.0 mg/kg/injection, schedule: Q04DX003 (ip), vehicle: other 108 % of control

COc1cccc(CC(=O)C(=O)O)c1
inactive: [20] 98 % of control | [14] 90 % of control | [8] 97 % of control | [16] 95 % of control | [9] 98 % of control
